# Source: patent US11840686B2, “Modulation of prekallikrein (PKK) expression” (Ionis Pharmaceuticals, Inc., priority 2013, dated 2023)
# Strand notation (5' to 3'): a small letter for the sugar, then the base; units joined by * are phosphorothioate-linked, units joined directly phosphodiester-linked; [ ] holds rarer units or linkages, { } end groups; capitals alone tell only the bases. e = 2'-O-(2-methoxyethyl) (MOE); [5mC] = 5-methylcytosine; d = 2'-deoxy (DNA)
# Test system: human PKK mRNA
# Assay: Antisense inhibition of human PKK mRNA in HepaRG cells, 5,000 nM (Example 2)
# Format: cell-based
# Settings: HepaRG cells, 5,000 nM antisense oligonucleotide; 5-10-5 gapmers; Table 16
# Method in brief: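 qRT-PCR (RTS3454) read-out, RIBOGREEN-normalized; % inhibition vs untreated cells. HepaRG, 20,000 cells/well, electroporation, 5,000 nM ASO, ~24 h.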
row,Substance,% inhibition
1,547677 (antisense e[5mC]*eA*eT*e[5mC]*eA*d[5mC]*dT*dG*dT*d[5mC]*d[5mC]*dT*dA*dT*dA*eA*e[5mC]*eT*eA*eT) [compound 547677],62%
2,547678 (antisense eT*eA*e[5mC]*e[5mC]*eT*dA*dT*dA*dT*d[5mC]*dA*d[5mC]*dT*dG*dT*eA*eA*e[5mC]*eT*eA) [compound 547678],21%
3,547679 (antisense eT*eG*eT*eA*e[5mC]*d[5mC]*dT*dA*dT*dA*dT*d[5mC]*dA*d[5mC]*dT*eG*eT*eA*eA*e[5mC]) [compound 547679],28%
4,547680 (antisense eT*eA*eT*e[5mC]*eA*d[5mC]*dT*dG*dT*dA*d[5mC]*d[5mC]*dT*dA*dT*eA*eT*e[5mC]*eA*e[5mC]) [compound 547680],41%
5,547681 (antisense eA*eA*eT*eA*eT*d[5mC]*dA*d[5mC]*dT*dG*dT*dA*d[5mC]*d[5mC]*dT*eA*eT*eA*eT*e[5mC]) [compound 547681],6%
6,547682 (antisense e[5mC]*eA*eA*eT*eA*dT*d[5mC]*dA*d[5mC]*dT*dG*dT*dA*d[5mC]*d[5mC]*eT*eA*eT*eA*eT) [compound 547682],20%
7,547683 (antisense eA*e[5mC]*eT*eA*eT*dA*dT*d[5mC]*dA*d[5mC]*dT*dG*dT*d[5mC]*d[5mC]*eT*eA*eT*eA*eA) [compound 547683],33%
8,547684 (antisense eT*eA*eA*e[5mC]*eT*dA*dT*dA*dT*d[5mC]*dA*d[5mC]*dT*dG*dT*e[5mC]*e[5mC]*eT*eA*eT) [compound 547684],43%
9,547685 (antisense eA*eT*eA*eA*e[5mC]*dT*dA*dT*dA*dT*d[5mC]*dA*d[5mC]*dT*dG*eT*e[5mC]*e[5mC]*eT*eA) [compound 547685],35%
10,547686 (antisense e[5mC]*eT*eG*eT*e[5mC]*d[5mC]*dT*dA*dT*dA*dA*d[5mC]*dT*dA*dT*eA*eT*e[5mC]*eA*e[5mC]) [compound 547686],36%

# Same assay, conditions: human PKK mRNA, HepaRG cells; 5-10-5 motif oligonucleotides targeting SEQ ID NO: 1 and 10
row,Substance,% inhibition
1,547638 (eA*eT*eA*eA*e[5mC]*dA*dG*dT*dA*dT*d[5mC]*dA*d[5mC]*dT*dG*eT*eA*e[5mC]*eT*eA; antisense) [compound 547638],87%
2,547639 (eG*eT*e[5mC]*e[5mC]*eT*dA*dT*dA*dA*d[5mC]*dT*dA*dT*dA*dA*e[5mC]*eA*eG*eT*eA; antisense) [compound 547639],72%
3,547640 (eT*eG*eT*e[5mC]*e[5mC]*dT*dA*dT*dA*dA*d[5mC]*dT*dA*dT*dA*eA*e[5mC]*eA*eG*eT; antisense) [compound 547640],13%
4,547641 (e[5mC]*eT*eG*eT*e[5mC]*d[5mC]*dT*dA*dT*dA*dA*d[5mC]*dT*dA*dT*eA*eA*e[5mC]*eA*eG; antisense) [compound 547641],43%
5,547642 (eT*e[5mC]*eA*e[5mC]*eT*dG*dT*d[5mC]*d[5mC]*dT*dA*dT*dA*dA*d[5mC]*eT*eA*eT*eA*eA; antisense) [compound 547642],72%
6,547643 (eA*eT*e[5mC]*eA*e[5mC]*dT*dG*dT*d[5mC]*d[5mC]*dT*dA*dT*dA*dA*e[5mC]*eT*eA*eT*eA; antisense) [compound 547643],72%
7,547644 (eT*eA*eT*e[5mC]*eA*d[5mC]*dT*dG*dT*d[5mC]*d[5mC]*dT*dA*dT*dA*eA*e[5mC]*eT*eA*eT; antisense) [compound 547644],51%
8,547645 (eA*eT*eA*eT*e[5mC]*dA*d[5mC]*dT*dG*dT*d[5mC]*d[5mC]*dT*dA*dT*eA*eA*e[5mC]*eT*eA; antisense) [compound 547645],60%
9,547646 (e[5mC]*eT*eA*eT*eA*dT*d[5mC]*dA*d[5mC]*dT*dG*dT*dA*d[5mC]*d[5mC]*eT*eA*eT*eA*eA; antisense) [compound 547646],23%
10,547648 (e[5mC]*e[5mC]*eT*eA*eT*dA*dA*d[5mC]*dA*dG*dT*dA*dT*d[5mC]*dA*e[5mC]*eT*eG*eT*eA; antisense) [compound 547648],83%
11,547649 (eA*e[5mC]*e[5mC]*eT*eA*dT*dA*dA*d[5mC]*dA*dG*dT*dA*dT*d[5mC]*eA*e[5mC]*eT*eG*eT; antisense) [compound 547649],73%
12,547650 (eG*eT*eA*e[5mC]*e[5mC]*dT*dA*dT*dA*dA*d[5mC]*dA*dG*dT*dA*eT*e[5mC]*eA*e[5mC]*eT; antisense) [compound 547650],32%
13,547651 (eT*eG*eT*eA*e[5mC]*d[5mC]*dT*dA*dT*dA*dA*d[5mC]*dA*dG*dT*eA*eT*e[5mC]*eA*e[5mC]; antisense) [compound 547651],48%
14,547652 (eT*e[5mC]*eA*e[5mC]*eT*dG*dT*dA*d[5mC]*d[5mC]*dT*dA*dT*dA*dA*e[5mC]*eA*eG*eT*eA; antisense) [compound 547652],59%
15,547653 (eA*eT*e[5mC]*eA*e[5mC]*dT*dG*dT*dA*d[5mC]*d[5mC]*dT*dA*dT*dA*eA*e[5mC]*eA*eG*eT; antisense) [compound 547653],57%
16,547654 (eT*eA*eT*e[5mC]*eA*d[5mC]*dT*dG*dT*dA*d[5mC]*d[5mC]*dT*dA*dT*eA*eA*e[5mC]*eA*eG; antisense) [compound 547654],53%
17,547655 (eA*eA*eT*eA*eT*d[5mC]*dA*d[5mC]*dT*dG*dT*d[5mC]*d[5mC]*dT*dA*eT*eA*eA*e[5mC]*eT; antisense) [compound 547655],37%
18,547656 (e[5mC]*eA*eA*eT*eA*dT*d[5mC]*dA*d[5mC]*dT*dG*dT*d[5mC]*d[5mC]*dT*eA*eT*eA*eA*e[5mC]; antisense) [compound 547656],42%
19,547657 (eA*e[5mC]*eA*eA*eT*dA*dT*d[5mC]*dA*d[5mC]*dT*dG*dT*d[5mC]*d[5mC]*eT*eA*eT*eA*eA; antisense) [compound 547657],43%

row,Substance,% inhibition
1,547658 (e[5mC]*eG*eT*eA*e[5mC]*dT*dA*dG*dT*dT*dT*d[5mC]*d[5mC]*dT*dA*eT*eA*eA*e[5mC]*eT; antisense) [compound 547658],68%
2,547659 (eA*e[5mC]*eT*eA*eT*dA*dA*d[5mC]*dA*dG*dT*dA*dT*d[5mC]*dA*e[5mC]*e[5mC]*eG*eT*eA; antisense) [compound 547659],80%
3,547660 (eA*eA*e[5mC]*eT*eA*dT*dA*dA*d[5mC]*dA*dG*dT*dA*dT*d[5mC]*eA*e[5mC]*e[5mC]*eG*eT; antisense) [compound 547660],68%
4,547661 (eT*eA*eA*e[5mC]*eT*dA*dT*dA*dA*d[5mC]*dA*dG*dT*dA*dT*e[5mC]*eA*e[5mC]*e[5mC]*eG; antisense) [compound 547661],80%
5,547662 (eA*e[5mC]*e[5mC]*eT*eA*dT*dA*dA*d[5mC]*dT*dA*dT*dA*dA*d[5mC]*eA*eG*eT*eA*eT; antisense) [compound 547662],0%
6,547663 (eT*eA*e[5mC]*e[5mC]*eT*dA*dT*dA*dA*d[5mC]*dT*dA*dT*dA*dA*e[5mC]*eA*eG*eT*eA; antisense) [compound 547663],10%
7,547664 (eG*eT*eA*e[5mC]*e[5mC]*dT*dA*dT*dA*dA*d[5mC]*dT*dA*dT*dA*eA*e[5mC]*eA*eG*eT; antisense) [compound 547664],2%
8,547665 (eT*eG*eT*eA*e[5mC]*d[5mC]*dT*dA*dT*dA*dA*d[5mC]*dT*dA*dT*eA*eA*e[5mC]*eA*eG; antisense) [compound 547665],10%
9,547666 (eA*eT*e[5mC]*eA*e[5mC]*dT*dG*dT*dA*d[5mC]*d[5mC]*dT*dA*dT*dA*eA*e[5mC]*eT*eA*eT; antisense) [compound 547666],71%
10,547667 (eT*eA*eT*e[5mC]*eA*d[5mC]*dT*dG*dT*dA*d[5mC]*d[5mC]*dT*dA*dT*eA*eA*e[5mC]*eT*eA; antisense) [compound 547667],55%
11,547668 (e[5mC]*eA*eA*e[5mC]*eT*dA*dT*dA*dA*d[5mC]*dA*dG*dT*dA*dT*e[5mC]*eA*e[5mC]*eT*eG; antisense) [compound 547668],44%
12,547669 (eA*e[5mC]*eA*eA*e[5mC]*dT*dA*dT*dA*dA*d[5mC]*dA*dG*dT*dA*eT*e[5mC]*eA*e[5mC]*eT; antisense) [compound 547669],0%
13,547670 (eT*eA*e[5mC]*eA*eA*d[5mC]*dT*dA*dT*dA*dA*d[5mC]*dA*dG*dT*eA*eT*e[5mC]*eA*e[5mC]; antisense) [compound 547670],0%
14,547671 (e[5mC]*eT*eA*e[5mC]*eA*dA*d[5mC]*dT*dA*dT*dA*dA*d[5mC]*dA*dG*eT*eA*eT*e[5mC]*eA; antisense) [compound 547671],0%
15,547672 (e[5mC]*eA*eA*eT*eA*dT*d[5mC]*dA*d[5mC]*dT*dG*dT*d[5mC]*d[5mC]*dT*eA*e[5mC]*eA*eA*e[5mC]; antisense) [compound 547672],36%
16,547673 (eG*eA*eA*eT*eA*dT*d[5mC]*dA*d[5mC]*dT*dG*dT*d[5mC]*d[5mC]*dT*eA*eT*eA*eA*e[5mC]; antisense) [compound 547673],21%
17,547674 (eA*e[5mC]*eA*eA*eT*dA*dT*d[5mC]*dA*d[5mC]*dT*dG*dT*dA*d[5mC]*e[5mC]*eT*eT*eT*eA; antisense) [compound 547674],53%
18,547675 (antisense eT*eG*eT*e[5mC]*e[5mC]*dT*dA*dT*dA*dA*d[5mC]*dT*dA*dT*dA*eA*e[5mC]*eA*eA*eT) [compound 547675],10%
19,547676 (antisense e[5mC]*eT*eG*eT*e[5mC]*d[5mC]*dT*dA*dT*dA*dA*d[5mC]*dT*dA*dT*eA*eA*e[5mC]*eA*eA) [compound 547676],41%
